Patent US10098350B2, “Fungicidal amides” (E. I. DU PONT DE NEMOURS AND COMPANY, priority 2013, dated 2018)

How the values were obtained:
Assay type in all cases: in vivo
[1] = tested on: Puccinia recondite f. sp. tritici; assay: Test D: wheat seedlings sprayed with test suspension, inoculated with Puccinia recondite f. sp. tritici (wheat leaf rust), visual disease rating
Text: (§1) General protocol for preparing test suspensions for Tests A-E: the test compounds were first dissolved in acetone in an amount equal to 3% of the final volume and then suspended at the desired concentration (in ppm) in acetone and purified water (50/50 mix by volume) containing 250 ppm of the surfactant Trem® 014 (polyhydric alcohol esters). The resulting test suspensions were then used in Tests A-E. Samples were applied to plants at either a 10 ppm (**), 40 ppm, 50 ppm (*) or 200 ppm (#) test solution to the point of run-off on the test plants with the equivalent of a rate of 40 g ai/ha, 160 g ai/ha, 200 g ai/ha, or 800 g ai/ha, respectively.
The test suspension was sprayed to the point of run-off on wheat seedlings. The following day the seedlings were inoculated with a spore suspension of Puccinia recondite f. sp. tritici; (the causal agent of wheat leaf rust) and incubated in a saturated atmosphere at 20° C. for 24 h, and then moved to a growth chamber at 20° C. for 6 days, after which time visual disease ratings were made.
(§2) Results for Tests A-E are given in Table A. In the Table, a rating of 100 indicates 100% disease control and a rating of 0 indicates no disease control (relative to the controls). A dash (-) indicates no test results.

Septoria tritici = assay: Test C: wheat seedlings sprayed with test suspension, inoculated with Septoria tritici (wheat leaf blotch), visual disease rating
Text: as §1
The test suspension was sprayed to the point of run-off on wheat seedlings. The following day the seedlings were inoculated with a spore suspension of Septoria tritici (the causal agent of wheat leaf blotch) and incubated in a saturated atmosphere at 24° C. for 48 h, and then moved to a growth chamber at 20° C. for 21 days, after which time visual disease ratings were made.
as §2

[2] = tested on: Erysiphe graminis f. sp. tritici; assay: Test E: wheat seedlings sprayed with test suspension, inoculated with Erysiphe graminis f. sp. tritici (wheat powdery mildew), visual disease rating
Text: as §1
The test suspension was sprayed to the point of run-off on wheat seedlings. The following day the seedlings were inoculated with a spore dust of Erysiphe graminis f. sp. tritici, (the causal agent of wheat powdery mildew) and incubated in a growth chamber at 20° C. for 7 or 8 days, after which time visual disease ratings were made.
as §2

[3] = Cmpd. No. marked '**' (other test rate; meaning of mark not shown)
[4] = Cmpd. No. marked '*' (other test rate; meaning of mark not shown)

SMILES	Test D rating (% disease control) [1, 3] [%]	Test C rating (% disease control) (Septoria tritici; [3]) [%]	Test E rating (% disease control) [2, 3] [%]	Test D rating (% disease control) [1, 4] [%]	Test C rating (% disease control) (Septoria tritici; [4]) [%]	Test E rating (% disease control) [2, 4] [%]
COc1cc(CN(C(=O)c2c(C(F)F)nn(C)c2F)C2CC2)ccc1-n1ccc(C(F)(F)F)n1 [compound 96]	99	100	73	–	–	–
Cn1cc(-c2cnc(CN(C(=O)c3c(C(F)F)nn(C)c3F)C3CC3)c(Br)c2)cn1 [compound 110]	–	–	–	94	90	40
Cn1cc(C(=O)N(Cc2cc(Cl)cc(-n3ccc(C(F)(F)F)n3)c2)C2CC2)c(C(F)F)n1 [compound 112]	–	–	–	54	94	40
CC(c1cccc(-n2ccc(C(F)(F)F)n2)c1Cl)N(C(=O)c1cn(C)nc1C(F)F)C1CC1 (stereo not shown) [compound 77]	9	82	64	–	–	–
Cn1nc(C(F)F)c(C(=O)N(Cc2cccc(-n3ccc(C(F)(F)F)n3)c2Cl)C2CC2)c1F [compound 136]	–	–	–	99	100	87
CC(c1ncc(-n2cc(Br)cn2)cc1Cl)N(C(=O)c1c(C(F)F)nn(C)c1F)C1CC1 (stereo not shown) [compound 78]	94	100	92	–	–	–
Cn1cc(C(=O)N(Cc2cc(-n3ccc(C(F)(F)F)n3)ncc2Cl)C2CC2)c(C(F)F)n1 [compound 75]	45	24	0	–	–	–
CC(c1cccc(-n2ccc(C(F)(F)F)n2)c1Cl)N(C(=O)c1c(C(F)F)nn(C)c1F)C1CC1 (stereo not shown) [compound 79]	–	–	–	74	99	98
Cc1cc(-n2ccc(C(F)(F)F)n2)cnc1CN(C(=O)c1c(C(F)F)nn(C)c1F)C1CC1 [compound 81]	98	94	81	–	–	–
Cn1nc(C(F)F)c(C(=O)N(Cc2ccc(-n3ccc(C(F)(F)F)n3)c(C(F)(F)F)c2)C2CC2)c1F [compound 95]	67	87	27	–	–	–
CC(c1ncc(-n2cccn2)cc1Cl)N(C(=O)c1c(C(F)F)nn(C)c1F)C1CC1 (racemic) [compound 101]	82	96	79	–	–	–
Cn1nc(C(F)F)c(C(=O)N(Cc2cccc(-n3ccc(C(F)(F)F)n3)c2C(F)(F)F)C2CC2)c1F [compound 137]	–	–	–	98	94	87
COc1ccc(-n2ccc(C(F)(F)F)n2)cc1CN(C(=O)c1c(C(F)F)nn(C)c1F)C1CC1 [compound 113]	–	–	–	99	100	97
Cn1nc(C(F)F)c(C(=O)N(Cc2cc(-n3ccc(C(F)(F)F)n3)ncc2Cl)C2CC2)c1F [compound 92]	67	–	0	–	–	–
CC(c1ncc(-n2ccc(C(F)(F)F)n2)cc1Cl)N(C(=O)c1c(C(F)F)nn(C)c1F)C1CC1 (stereo not shown) [compound 103]	98	98	94	–	–	–
CC(c1ncc(-n2ccc(-c3ccccc3)n2)cc1Cl)N(C(=O)c1c(C(F)F)nn(C)c1F)C1CC1 (racemic) [compound 90]	99	99	86	–	–	–
CC(C)c1cc(CN(C(=O)c2c(C(F)F)nn(C)c2F)C2CC2)ccc1-n1ccc(C(F)(F)F)n1 [compound 116]	98	–	69	–	–	–
